Laboratory results published in patent US10144715B2, “Piperazine derivatives as liver X receptor modulators” (priority 2014, dated 2018).
Where two headings read alike, the source gives them in different places.

What was measured:
[1] = target: Gal4 DNA binding domain fused to the LBD of LXRα in HEK293 cells (Homo sapiens (Human), UniProt Q13133); assay: LXR luciferase transcriptional reporter gene assay, agonist mode, LXRα; assay type: cell-based; settings: for EC50: read-out: Cell LXRα EC50
LXR β LBD protein = LXR β LBD protein (Homo sapiens (Human), UniProt P55055); assay: biochemical; assay type: binding
[2] = target: Gal4 DNA binding domain fused to the LBD of LXRβ in HEK293 cells (Homo sapiens (Human), UniProt P55055); assay: cell-based
[3] = Biological Test Example 1, read-out: LXRβ Binding Ki
[4] = Biological Test Example 2, agonist mode
[5] = Biological Test Example 2, agonist mode, read-out: Cell LXRβ EC50

Sequence of LXR β LBD protein (P55055 222-460 limits assumed): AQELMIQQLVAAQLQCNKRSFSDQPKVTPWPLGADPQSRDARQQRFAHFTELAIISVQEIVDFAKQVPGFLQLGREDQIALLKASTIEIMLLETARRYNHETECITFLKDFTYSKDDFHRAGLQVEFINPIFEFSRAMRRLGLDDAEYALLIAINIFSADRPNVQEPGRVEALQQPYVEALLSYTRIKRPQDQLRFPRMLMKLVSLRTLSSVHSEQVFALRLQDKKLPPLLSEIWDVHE
Sequence of Gal4 DNA binding domain fused to the LBD of LXRβ in HEK293 cells (P55055 222-460 limits assumed): as above
Sequence of Gal4 DNA binding domain fused to the LBD of LXRα in HEK293 cells (Q13133 209-447): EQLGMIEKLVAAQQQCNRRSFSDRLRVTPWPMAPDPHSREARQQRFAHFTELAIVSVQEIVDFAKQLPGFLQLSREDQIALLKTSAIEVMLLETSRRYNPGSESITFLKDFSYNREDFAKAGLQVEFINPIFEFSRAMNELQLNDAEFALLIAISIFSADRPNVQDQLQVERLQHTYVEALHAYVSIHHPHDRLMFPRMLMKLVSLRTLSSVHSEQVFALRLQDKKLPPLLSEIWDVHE

| Ki (LXR β LBD protein; read-out: LXRβ Binding Ki) | Cell LXRβ efficacy [2] | SMILES | Cell LXRα efficacy [1] | EC50 [1] | Ki (LXR β LBD protein; [3]) | Cell LXRβ efficacy [2, 4] | EC50 [2, 5] | EC50 [2] | EC50 ([1]; agonist mode) | Cell LXRβ efficacy ([2]; agonist mode) | Ki (LXR β LBD protein) |
| --- | --- | --- | --- | --- | --- | --- | --- | --- | --- | --- | --- |
|  |  | CS(=O)(=O)c1cccc(N2CCN(C[C@@H]3C[C@H]4CC[C@@H](C3)N4CC(F)(F)F)[C@@H](c3ccccc3)C2)c1 [48-76, (1R,3s,5S)-3-(((S)-4-(3-(methylsulfonyl)phenyl)-2-phenylpiperazin-1-yl)methyl)-8-(2,2,2-trifluoroethyl)-8-azabicyclo[3.2.1]octane] | 1394 (54) % | 1390 nM | 67 nM | 27% | 374 nM |  |  |  |  |
| 1670 nM | 4014 (16) % | CS(=O)(=O)c1cccc(N2CCN(CC3CCN(CC(F)(F)F)CC3)[C@H](c3ccccc3Cl)C2)c1 [48-56, (R)-2-(2-chlorophenyl)-4-(3-(methylsulfonyl)phenyl)-1-((1-(2,2,2-trifluoroethyl)piperidin-4-yl)methyl)piperazine] |  | > 20000 nM |  |  |  | 4010 nM |  |  |  |
|  |  | CS(=O)(=O)c1cccc(N2CCN(C[C@@H]3C[C@H]4CC[C@@H](C3)N4CC(F)(F)F)[C@H](c3ccccc3)C2)c1 [48-75, (1R,3s,5S)-3-(((R)-4-(3-(methylsulfonyl)phenyl)-2-phenylpiperazin-1-yl)methyl)-8-(2,2,2-trifluoroethyl)-8-azabicyclo[3.2.1]octane] |  | > 20000 nM | 940 nM | 21% | 2400 nM |  |  |  |  |
| 226 nM |  | CC(C)(O)c1cc(CN2CCN(c3cccc(S(C)(=O)=O)c3)C[C@@H]2c2ccccc2)ccc1C(F)(F)F [10-13, (S)-2-(5-((4-(3-(methylsulfonyl)phenyl)-2-phenylpiperazin-1-yl)methyl)-2-(trifluoromethyl)phenyl)propan-2-ol] |  |  |  |  |  | > 20000 nM | > 20000 nM |  |  |
|  |  | CS(=O)(=O)c1cccc(N2CCN(C[C@@H]3CC[C@@H](C(F)(F)F)OC3)[C@@H](c3ccc(F)cc3)C2)c1 (single isomer, unassigned) [49-11] | 2460 (42) % | 2460 nM |  | 887 (21) % |  | 887 nM |  |  | 214 nM |
| 512 nM |  | CC(C)[C@@H]1CN(c2ccc(F)c(S(C)(=O)=O)c2)CCN1c1ncc(C(=O)N2CC(N)C2)c(C(F)(F)F)n1 [17-4, (R)-(3-aminoazetidin-1-yl)(2-(4-(4-fluoro-3-(methylsulfonyl)phenyl)-2-isopropylpiperazin-1-yl)-4-(trifluoromethyl)pyrimidin-5-yl)methanone] |  |  |  |  |  | 833 nM | > 20000 nM | 833 (6) % |  |
| 396 nM |  | CC(C)[C@@H]1CN(c2ccc(F)c(S(C)(=O)=O)c2)CCN1c1ncc(C(=O)N2CC(O)C2)c(C(F)(F)F)n1 [17-5, (R)-(2-(4-(4-fluoro-3-(methylsulfonyl)phenyl)-2-isopropylpiperazin-1-yl)-4-(trifluoromethyl)pyrimidin-5-yl)(3-hydroxyazetidin-1-yl)methanone] |  |  |  |  |  | > 20000 nM | > 20000 nM |  |  |

| SMILES | Ki (LXR β LBD protein; read-out: LXRβ Binding Ki) | Cell LXRβ efficacy [2] | Cell LXRα efficacy [1] | EC50 [1] | Ki (LXR β LBD protein; [3]) | Cell LXRβ efficacy [2, 4] | EC50 [2, 5] | EC50 [2] | EC50 ([1]; agonist mode) | Cell LXRβ efficacy ([2]; agonist mode) | Ki (LXR β LBD protein) |
| --- | --- | --- | --- | --- | --- | --- | --- | --- | --- | --- | --- |
| CS(=O)(=O)c1cccc(N2CCN(Cc3ccc(C(F)(F)F)c(Br)c3)C(c3ccccc3)C2)c1 (stereo not shown) [46-37, 1-(3-bromo-4-(trifluoromethyl)benzyl)-4-(3-(methylsulfonyl)phenyl)-2-phenylpiperazine] | 30 nM |  | 3451 (52) % |  |  |  |  | 1190 nM | 3450 nM | 1194 (55) % |  |
| CCOC(=O)c1cnc(N2CCN(c3ccc(F)c(S(C)(=O)=O)c3)CC2CC(F)(F)F)nc1C (stereo not shown) [7-22, ethyl 2-(4-(4-fluoro-3-(methylsulfonyl)phenyl)-2-(2,2,2-trifluoroethyl)piperazin-1-yl)-4-methylpyrimidine-5-carboxylate] | 17 nM |  | 1038 (43) % |  |  |  |  | 191 nM | 1040 nM | 191 (31) % |  |
| CSCc1cnc(N2CCN(c3ccc(F)c(S(C)(=O)=O)c3)C[C@H]2C(C)C)nc1C(F)(F)F [15-8, (R)-2-(4-(4-fluoro-3-(methylsulfonyl)phenyl)-2-isopropylpiperazin-1-yl)-5-((methylthio)methyl)-4-(trifluoromethyl)pyrimidine] | 1 nM |  | 219 (44) % |  |  |  |  | 34 nM | 219 nM | 34 (35) % |  |
